Reference: US10137199B2, “Thiolated hyaluronan-based hydrogels cross-linked using oxidized glutathione” (BioTime, Inc., priority 2013, dated 2018)

What was measured:
[1] = Gel formation of CMHA-S and Gelin-S with disulfide containing small molecules; type: physicochemical; conditions: thiolated biopolymers CMHA-S and Gelin-S
Experimental: Initially we tested whether GSSG would be a suitable reactant for a thiol-disulfide exchange reaction with thiolated biopolymers CMHA-S and Gelin-S to form a two-component (CMHA/Gelin/GSSG) gel with no additional crosslinking molecule (FIG. 1 where R′—SH represents Gelin-S). A gel formed in approximately three minutes using a final concentration of 4 mM GSSG and 0.4% w/v CMHA-S and 0.4% w/v Gelin-S (Sample 4, Table 1).

ADSC = test: Cell attachment on peptide functionalized CMHA/GSSG hydrogels, ADSC; type: cell-based, human; conditions: 15,000 cells/well, attach overnight, calcein AM
Experimental: After N-terminal maleimido-tagged peptides (Anaspec, Inc. Fremont, CCA) were resuspended in 1×PBS, 1 volume 10 mM peptide was mixed with nine volumes CMHA-S, and reaction was allowed to occur at room temperature in the dark, overnight. GSSG was added to a final concentration of 4 mM (brings peptide final concentration to 0.88 mM) and the mixture allowed to form gels in a 48-well multiwell plate. Unreacted peptides were removed by three washes of at least five volumes 1×PBS at 75 rpm 37° C., for at least 4 hr each. ADSC or BM-MSC in DMEM/10% FBS were then added to each well (15,000 cells/well in a 48 well plate) and allowed to attach overnight. On the final day, the cells were imaged by fluorescence using calcein AM stain.

| Compound | gel formation [1] | ADSC attachment (ADSC) |
| --- | --- | --- |
| N[C@@H](CS)C(=O)O [cysteine] | did not cause gel formation |  |
| OC1CSSCC1O (stereo not drawn) [oxidized DT] | did not cause gel formation |  |
| CRGDS |  | poor robustness |
